Data reported in US9249125B2, “Pyrazole derivatives as p38 MAP inhibitors” (RESPIVERT LIMITED, priority 2012, dated 2016).

Experiments:
[1] = target: Syk (Homo sapiens (Human), UniProt P43405); experiment: Syk enzyme inhibition (FRET, Z-LYTE); assay type: biochemical
Protocol: (§1) The enzyme inhibitory activities of compounds disclosed herein are determined by FRET using synthetic peptides labelled with both donor and acceptor fluorophores (Z-LYTE, Invitrogen Ltd., Paisley, UK).
(§2) The relevant enzyme (3000 ng/mL or 2000 ng/mL respectively, 2.5 μL) is incubated with the test compound (either 4 μg/mL, 0.4 μg/mL, 0.04 μg/mL, or 0.004 μg/mL, 2.5 μL each) for 2 hr at RT. The FRET peptides (8 μM, 2.5 μL), and appropriate ATP solutions (2.5 μL, 800 μM for c-Src, and 60 μM ATP for Syk) are then added to the enzymes/compound mixtures and incubated for 1 hr. Development reagent (protease, 5 μL) is added for 1 hr prior to detection in a fluorescence microplate reader (Varioskan® Flash, ThermoFisher Scientific).
(§3) In all cases, the site-specific protease cleaves non-phosphorylated peptide only and eliminates the FRET signal. Phosphorylation levels of each reaction are calculated using the ratio of coumarin emission (donor) over fluorescein emission (acceptor), for which low ratios indicate high phosphorylation and high ratios indicate low phosphorylation levels.

[2] = system: LPS-induced IL-8 release in d-U937 cells; experiment: LPS-induced IL-8 release in d-U937 cells; assay type: cell-based; settings: Homo sapiens, dU937, read-out: LPS Induced Release of Cytokine in d-937 Cells IL-8 IC50
Protocol: (§4) U937 cells, a human monocytic cell line, are differentiated into macrophage-type cells by incubation with PMA (100 ng/mL) for 48 to 72 hr. Cells are pre-incubated with final concentrations of test compound for 2 hr and are then stimulated with LPS (0.1 μg/mL) (from E. coli: O111:B4, Sigma) for 4 hr. The supernatant is collected for determination of TNFα and IL-8 concentrations by sandwich ELISA (Duo-set, R&D systems). […] The relative 50% effective concentration (REC50) is determined from the resultant concentration-response curve. The inhibition of IL-8 production is calculated at each concentration of test compound by comparison with vehicle control. […] (b) LPS-Induced TNFα/IL-8 Release in PBMC Cells

[3] = system: d-U937 cells; experiment: Cell viability: MTT assay; assay type: cell-based, human; settings: 1 μg/mL
Protocol: Differentiated U937 cells are pre-incubated with each test compound (final concentration 1 μg/mL or 10 μg/mL in 200 μL media indicated below) under two protocols: the first for 4 hr in 5% FCS RPMI1640 media and the second in 10% FCS RPMI1640 media for 24 h. The supernatant is replaced with new media (200 μL) and MTT stock solution (10 μL, 5 mg/mL) is added to each well. After incubation for 1 hr the media are removed, DMSO (200 μL) is added to each well and the plates are shaken lightly for 1 hr prior to reading the absorbance at 550 nm. The percentage loss of cell viability is calculated for each well relative to vehicle (0.5% DMSO) treatment. Consequently an apparent increase in cell viability for drug treatment relative to vehicle is tabulated as a negative percentage.

[4] = system: Poly I:C-induced ICAM-1 expression in BEAS2B cells; experiment: Poly I:C-induced ICAM-1 expression in BEAS2B cells; assay type: cell-based; settings: Homo sapiens, BEAS-2B, read-out: Poly IC induced ICAM1 in BEAS2B IC50
Protocol: Poly I:C is used in these studies as a simple, RNA virus mimic. Poly I:C-Oligofectamine mixture (1 μg/mL Poly I:C, ±2% Oligofectamine, 25 uL) (Invivogen Ltd., San Diego, Calif., and Invitrogen, Carlsbad, Calif., respectively) is transfected into BEAS2B cells (human bronchial epithelial cells, ATCC). Cells are pre-incubated with final concentrations of test compounds for 2 hr and the level of ICAM1 expression on the cell surface is determined by cell-based ELISA. At a time point 18 hr after poly I:C transfection, cells are fixed with 4% formaldehyde in PBS (100 μL) and then endogenous peroxidase is quenched by the addition of washing buffer (100 μL, 0.05% Tween in PBS: PBS-Tween) containing 0.1% sodium azide and 1% hydrogen peroxide. Cells are washed with wash-buffer (3×200 μL). and after blocking the wells with 5% milk in PBS-Tween (100 μL) for 1 hr, the cells are incubated with anti-human ICAM-1 antibody (50 μL) (Cell Signaling Technology, Danvers, Mass.) in 1% BSA PBS overnight at 4° C.
The cells are washed with PBS-Tween (3×200 μL) and incubated with the secondary antibody (100 μL) (HRP-conjugated anti-rabbit IgG, Dako Ltd., Glostrup, Denmark). The cells are then incubated with of substrate (50 μL) for 2-20 min, followed by the addition of stop solution (50 μL, 1N H2SO4). The ICAM-1 signal is detected by reading and reading the absorbance at 450 nm against a reference wavelength of 655 nm using a spectrophotometer. The cells are then washed with PBS-Tween (3×200 μL) and total cell numbers in each well are determined by reading absorbance at 595 nm after Crystal Violet staining (50 μL of a 2% solution in PBS) and elution by 1% SDS solution (100 μL) in distilled water. The measured OD 450-655 readings are corrected for cell number by dividing with the OD595 reading in each well.

[5] = target: GSK3α (Homo sapiens (Human), UniProt P49840); experiment: GSK 3α enzyme inhibition (FRET, Z-LYTE); assay type: biochemical
Sequence of GSK3α (P49840 whole entry): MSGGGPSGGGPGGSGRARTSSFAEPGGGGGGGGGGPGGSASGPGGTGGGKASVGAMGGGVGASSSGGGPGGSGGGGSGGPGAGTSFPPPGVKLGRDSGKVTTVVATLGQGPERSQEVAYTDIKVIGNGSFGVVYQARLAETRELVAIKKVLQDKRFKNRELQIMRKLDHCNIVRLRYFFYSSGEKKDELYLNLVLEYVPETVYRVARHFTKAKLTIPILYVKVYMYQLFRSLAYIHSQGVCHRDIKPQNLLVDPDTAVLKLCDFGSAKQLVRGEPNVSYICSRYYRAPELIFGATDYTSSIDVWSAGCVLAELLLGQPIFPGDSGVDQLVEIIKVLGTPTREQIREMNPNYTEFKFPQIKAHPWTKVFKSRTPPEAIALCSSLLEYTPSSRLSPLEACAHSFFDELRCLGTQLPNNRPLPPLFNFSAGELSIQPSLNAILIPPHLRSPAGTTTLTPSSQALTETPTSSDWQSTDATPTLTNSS
Protocol: as §1
The inhibitory activities of compounds of the invention against the GSK 3α enzyme isoform (Invitrogen), are evaluated by determining the level of activation/phosphorylation of the target peptide. The GSK3-α protein (500 ng/mL, 2.5 μL) is mixed with the test compound (2.5 μL at either 4 μg/mL, 0.4 μg/mL, 0.04 μg/mL, or 0.004 μg/mL) for 2 hr at RT. The FRET peptide (8 μM, 2.5 μL), which is a phosphorylation target for GSK3α, and ATP (40 μM, 2.5 μL) are then added to the enzyme/compound mixture and the resulting mixture incubated for 1 hr. Development reagent (protease, 5 μL) is added for 1 hr prior to detection in a fluorescence microplate reader (Varioskan® Flash, ThermoFisher Scientific).
as §3

[6] = target: p38 MAPKα (Homo sapiens (Human), UniProt Q16539); experiment: p38 MAPKα enzyme inhibition (FRET, Z-LYTE); assay type: biochemical
Sequence of p38 MAPKα (Q16539 whole entry): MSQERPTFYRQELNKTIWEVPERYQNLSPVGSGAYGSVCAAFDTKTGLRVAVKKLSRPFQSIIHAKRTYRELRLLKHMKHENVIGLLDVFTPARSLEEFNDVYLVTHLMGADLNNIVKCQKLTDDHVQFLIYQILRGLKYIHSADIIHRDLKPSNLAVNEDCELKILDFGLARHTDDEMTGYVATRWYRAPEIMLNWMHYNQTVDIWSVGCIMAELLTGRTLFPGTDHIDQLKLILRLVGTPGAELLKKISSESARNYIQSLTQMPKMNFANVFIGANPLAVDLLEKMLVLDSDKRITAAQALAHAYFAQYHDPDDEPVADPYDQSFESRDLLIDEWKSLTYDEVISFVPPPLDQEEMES
Protocol: as §1
The inhibitory activities of test compounds against the p38 MAPKα isoform (MAPK14: Invitrogen), are evaluated indirectly by determining the level of activation/phosphorylation of the down-stream molecule, MAPKAP-K2. The p38 MAPKα protein (80 ng/mL, 2.5 μL) is mixed with the test compound (2.5 μL of either 4 μg/mL, 0.4 μg/mL, 0.04 μg/mL or 0.004 μg/mL) for 2 hr at RT. […] The mixture is incubated for 1 hr at RT. Development reagent (protease, 5 μL) is added for 1 hr prior to detection in a fluorescence microplate reader (Varioskan® Flash, ThermoFisher Scientific).
as §3

[7] = target: cSrc (Homo sapiens (Human), UniProt P12931); experiment: c-Src enzyme inhibition (FRET, Z-LYTE); assay type: biochemical
Sequence of cSrc (P12931 whole entry, looked up): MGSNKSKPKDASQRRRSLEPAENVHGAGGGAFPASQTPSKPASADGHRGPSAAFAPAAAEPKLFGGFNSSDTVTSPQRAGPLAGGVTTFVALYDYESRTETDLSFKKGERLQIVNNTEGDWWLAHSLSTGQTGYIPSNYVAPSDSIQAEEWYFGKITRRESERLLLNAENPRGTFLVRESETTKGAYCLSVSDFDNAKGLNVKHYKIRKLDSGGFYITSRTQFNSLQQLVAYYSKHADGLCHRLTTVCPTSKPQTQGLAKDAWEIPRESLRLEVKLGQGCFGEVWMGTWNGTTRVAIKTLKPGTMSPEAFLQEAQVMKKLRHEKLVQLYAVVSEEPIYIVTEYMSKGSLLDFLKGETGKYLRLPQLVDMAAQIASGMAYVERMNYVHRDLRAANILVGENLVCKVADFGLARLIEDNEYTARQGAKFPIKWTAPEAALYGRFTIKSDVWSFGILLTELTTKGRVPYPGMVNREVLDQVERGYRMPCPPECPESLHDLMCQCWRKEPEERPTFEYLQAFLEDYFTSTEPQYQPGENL
Protocol: as §1, §2, §3

[8] = system: LPS-induced TNFα release in d-U937 cells; experiment: LPS-induced TNFα release in d-U937 cells; assay type: cell-based; settings: Homo sapiens, dU937, relative to 10 μg/mL BIRB796, read-out: LPS Induced Release of Cytokine in d-937 Cells TNFα REC50
Protocol: as §4

IC50 [1] [nM] | IC50 [2] [nM] | IC50 [5] [nM] | IC50 [6] [nM] | IC50 [7] [nM] | EC50 [8] [nM] | Structure (SMILES) | MTT Assay Cell viability at time point in d-U937 cells 4 h [3] | MTT Assay Cell viability at time point in d-U937 cells 24 h [3] | IC50 [4] [nM]
2 | 34 | 1170 | 31 | < 1 | 16.4 | CC(C)(C)c1cc(NC(=O)Nc2ccc(Oc3ccnc(Nc4ccc5c(c4)NC(=O)C5)n3)c3ccccc23)n(-c2cccc(OCCN3CCOCC3)c2)n1 [Example 50, 1-(3-(tert-butyl)-1-(3-(2-morpholinoethoxy)phenyl)-1H-pyrazol-5-yl)-3-(4-((2-((2-oxoindolin-6-yl)amino)pyrimidin-4-yl)oxy)naphthalen-1-yl)urea] | −ve (−ve and +ve indicate that the value is below and above respectively, the no significant effect threshold, defined as 30% inhibition at 1 μg/mL at the time point indicated.) | −ve (−ve and +ve indicate that the value is below and above respectively, the no significant effect threshold, defined as 30% inhibition at 1 μg/mL at the time point indicated.) | 2.7
39 | 15.3 | > 16000 | 10 | 11 | 5.8 | COc1ccc(-n2nc(C(C)C)cc2NC(=O)Nc2ccc(Oc3cc(Nc4ccc5[nH]ncc5c4)ncn3)c3ccccc23)cc1 [Example 39, 1-(4-((6-((1H-indazol-5-yl)amino)pyrimidin-4-yl)oxy)naphthalen-1-yl)-3-(3-isopropyl-1-(4-methoxyphenyl)-1H-pyrazol-5-yl)urea] | −ve (−ve and +ve indicate that the value is below and above respectively, the no significant effect threshold, defined as 30% inhibition at 1 μg/mL at the time point indicated.) | −ve (−ve and +ve indicate that the value is below and above respectively, the no significant effect threshold, defined as 30% inhibition at 1 μg/mL at the time point indicated.) | 160
4 | 2.3 | 1100 | 45 | 2 | 1.7 | Cc1cc(Nc2nccc(Oc3ccc(NC(=O)Nc4cc(C(C)(C)C)nn4-c4ccc(=O)n(CCO)c4)c4ccccc34)n2)cc2cn[nH]c12 [Example 87, 1-(3-(tert-butyl)-1-(1-(2-hydroxyethyl)-6-oxo-1,6-dihydropyridin-3-yl)-1H-pyrazol-5-yl)-3-(4-((2-((7-methyl-1H-indazol-5-yl)amino)pyrimidin-4-yl)oxy)naphthalen-1-yl)urea] | −ve (−ve and +ve indicate that the value is below and above respectively, the no significant effect threshold, defined as 30% inhibition at 1 μg/mL at the time point indicated.) | −ve (−ve and +ve indicate that the value is below and above respectively, the no significant effect threshold, defined as 30% inhibition at 1 μg/mL at the time point indicated.) | 1

Second part, the compound before the results:

Structure (SMILES) | IC50 [1] [nM] | IC50 [2] [nM] | IC50 [5] [nM] | IC50 [6] [nM] | IC50 [7] [nM] | EC50 [8] [nM] | MTT Assay Cell viability at time point in d-U937 cells 4 h [3] | MTT Assay Cell viability at time point in d-U937 cells 24 h [3] | IC50 [4] [nM]
CC(C)(C)c1cc(NC(=O)Nc2ccc(Oc3ccnc(Nc4ccc5sncc5c4)n3)c3ccccc23)n(-c2ccc(OCCN3CCOCC3)cc2)n1 [Example 78, 1-(4-((2-(benzo[d]isothiazol-5-ylamino)pyrimidin-4-yl)oxy)naphthalen-1-yl)-3-(3-(tert-butyl)-1-(4-(2-morpholinoethoxy)phenyl)-1H-pyrazol-5-yl)urea] | 33 | 7.4 | 2420 | 139 | 8 | 4.7 | −ve (−ve and +ve indicate that the value is below and above respectively, the no significant effect threshold, defined as 30% inhibition at 1 μg/mL at the time point indicated.) | −ve (−ve and +ve indicate that the value is below and above respectively, the no significant effect threshold, defined as 30% inhibition at 1 μg/mL at the time point indicated.) | 7.9
Cc1ccc(-n2nc(C(C)(C)C)cc2NC(=O)Nc2ccc(Oc3ccnc(Nc4cnc5[nH]ccc5c4)n3)c3ccccc23)cc1 [Example 32, 1-(4-((2-((1H-pyrrolo[2,3-b]pyridin-5-yl)amino)pyrimidin-4-yl)oxy)naphthalen-1-yl)-3-(3-(tert-butyl)-1-(p-tolyl)-1H-pyrazol-5-yl)urea] |  | 0.6 | > 1600 | 79 |  | 1.7 | −ve (−ve and +ve indicate that the value is below and above respectively, the no significant effect threshold, defined as 30% inhibition at 1 μg/mL at the time point indicated.) | −ve (−ve and +ve indicate that the value is below and above respectively, the no significant effect threshold, defined as 30% inhibition at 1 μg/mL at the time point indicated.) | 
Cc1ccc(-n2nc(C(C)(C)C)cc2NC(=O)Nc2ccc(Oc3ccnc(Nc4cccc5[nH]ncc45)n3)c3ccccc23)cc1 [Example 21] | 182 | 5 | > 16000 |  |  | 1.7 | −ve (−ve and +ve indicate that the value is below and above respectively, the no significant effect threshold, defined as 30% inhibition at 1 μg/mL at the time point indicated.) | −ve (−ve and +ve indicate that the value is below and above respectively, the no significant effect threshold, defined as 30% inhibition at 1 μg/mL at the time point indicated.) | 3
